Results on one molecule are retold here after publication PMC8800111 (The Journal of Biological Chemistry, 2021).

Some results are limits rather than exact numbers.

As usually defined, the solubility is the concentration that dissolves in the medium under given conditions. High values mean much dissolved substance, low ones little dissolved substance.

For data set [1], the system named is nuclear pSTAT3 and total STAT3 in U3A cells. Kind of data set: Nuclear and cytoplasmic fractionation immunoblotting in OSM-stimulated U3A cells. The settings on record: 10 μM 1 h, 10 ng/ml OSM 30 min. Format: cell-based, human. On the procedure:
It should be noted that, given the variability inherent in chromatin immunoprecipitation (IP), few of the individual changes in binding reached statistical significance. However, the trend in each of the five genes was identical.
B, MDA-MB-468 cells were treated with 5 μM PYR for 24 h. Nuclear and cytoplasmic fractions were analyzed by immunoblotting with the indicated antibodies. PARP and tubulin were used as nuclear and cytoplasmic markers, respectively. C, U3A human fibrosarcoma cells stably expressing STAT3-dependent luciferase were pretreated with 10 μM PYR for 1 h and stimulated with 10 ng/ml oncostatin M (OSM) for 30 min. Nuclear and cytoplasmic fractions were analyzed by immunoblotting with the indicated antibodies. […] D, SKBR3 cells were treated with 10 μM PYR for 1 h, stimulated with 10 ng/ml leukemia inhibitory factor (LIF) for 30 min, and analyzed by chromatin immunoprecipitation with antibodies to STAT3 and RNA pol II (pol II). Binding at the indicated target genes was assessed by quantitative RT–PCR. Data are expressed as percent of input. […]
Cells were lysed on ice for 15 min in either radioimmunoprecipitation assay lysis buffer (Boston BioProducts) or EBC lysis buffer (50 mM Tris [pH 8.0], 250 mM NaCl, and 0.5% Nonidet-P40 [NP-40]) containing phosphatase and complete protease inhibitors (Roche). […] Immunoblots were developed, and band intensity was quantified using Fiji ([42]).
(In general: Immunoblotting shows a protein as a band on a membrane.)

The test system of the next data set is U3A cells. The data set is described as follows: Cellular ATP levels (CellTiter-Glo). The settings on record: 10 μM, 6 h. Format: cell-based, human. A general note: ATP-based viability assays read luminescence as a measure of living cells.
Data set [2] in a line: Apoptosis assay (FITC annexin V / propidium iodide flow cytometry). The class given is cell-based. The settings on record: human; U3A cells, 6 h time point, same treatment as ATP assay; read-out: viable cells.
In data set [3] the target is T1, DHFR (Homo sapiens, UniProt P00374).
T1 sequence (P00374 1-187): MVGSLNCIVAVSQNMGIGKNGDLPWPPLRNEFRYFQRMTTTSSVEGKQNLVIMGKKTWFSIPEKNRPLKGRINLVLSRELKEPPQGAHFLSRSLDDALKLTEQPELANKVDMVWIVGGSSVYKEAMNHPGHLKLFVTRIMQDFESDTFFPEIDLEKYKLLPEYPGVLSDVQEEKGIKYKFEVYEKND

For another data set, the target named is CHCHD2 (Homo sapiens, UniProt Q9Y6H1). Kind of data set: Cellular thermal shift assay (CETSA) in intact U3A cells. The class given is cell-based. The settings on record: 10 μM, 10 min.
On the set-up of data set [4]: method as in printed. As to conditions: patients taking this drug for months at a time; ref not given; cited from earlier work.
Data set [5] deals with T1, DHFR. The settings on record: DHFR enzymatic IC50.
The next data set concerns STAT5. As to conditions: original high-throughput screen; cited from earlier work.
For data set [6], the target named is T1, DHFR. The data set is described as follows: Cellular thermal shift assay (CETSA) in U3A cell lysate. The class given is binding. As to conditions: 10 μM, 10 min.
Experimental: (§1) Protein abundance was measured by immunoblotting and band quantification.
(§2) U3A cells were cultured in DMEM (Thermo Fisher Scientific) with 10% heat-inactivated fetal bovine serum and 1% penicillin/streptomycin. […] Cells were washed once with PBS, harvested using trypsin, and centrifuged at 300g. The pellet was resuspended in Tris-buffered saline (TBS) supplemented with cOmplete protease inhibitor cocktail (Roche), aliquoted (50 μl; 8 × 10^5 cells per temperature) into PCR strip tubes, and heated at the indicated temperature in a Veriti Thermal Cycler (Applied Biosystems) for 3 min, then cooled for another 3 min at room temperature. Cells were then lysed by freeze–thawing three times with 3-min incubations in an ethanol/dry ice bath and a water bath at 37 °C. The lysates were then centrifuged at 17,000g for 20 min at 4 °C to remove cellular debris and pelleted protein aggregates. Supernatants (40 μl) were transferred to new tubes and prepared for immunoblotting. […] Briefly, U3A cells in exponential growth rate were collected, resuspended in TBS supplemented with cOmplete protease inhibitor cocktail (Roche), lysed by freeze–thaw cycle, and centrifuged at 17,000g for 20 min at 4 °C. […] Band intensities were quantified using Fiji ([42]) and then plotted and fitted in GraphPad Prism (GraphPad Software, Inc) to obtain apparent Tagg values.
Data set [7] deals with STAT3 target genes in U3A cells. Kind of data set: STAT3 target gene expression by qRT-PCR in U3A cells. The class given is cell-based, human. The settings on record: 10 μM 1 h, OSM 90 min. A general note: Real-time PCR tracks product formation cycle by cycle.
The next data set in a line: physchem. The settings on record: DHFR enzymatic assay medium with 5% DMSO, 37 °C, aqueous with cosolvent or surfactant or cyclodextrin, kinetic from dmso stock.
Data set [8] deals with proteins of U3A human fibrosarcoma cells (4462 proteins detected) (Homo sapiens, UniProt Q8NCA5). Format: cell-based. As to conditions: protein FAM98A; U3A cells.
Data set [9] has as its target proteins of U3A human fibrosarcoma cells (4462 proteins detected) (Homo sapiens, UniProt Q9NYY8). The class given is cell-based. As to conditions: protein FASTKD2; U3A cells.
The test system of data set [10] is RNA pol II recruitment in SKBR3 cells. Kind of data set: Chromatin immunoprecipitation, RNA polymerase II binding at target genes. The class given is cell-based, human. The settings on record: 10 μM 1 h, 10 ng/ml LIF 30 min.
Experimental: (§3) Nuclei were centrifuged at 660g for 5 min at 4 °C and lysed in 300 μl of nuclear lysis buffer (50 mM Tris [pH 8.1], 10 mM EDTA, 1% SDS, and phosphatase and protease inhibitors). […] Lysate was then added to 60 μl of Protein A/G PLUS agarose beads (catalog no.: 2003; Santa Cruz Biotechnology) and rotated for 4 to 6 h at 4 °C. […] Beads were resuspended in 150 μl elution buffer (100 mM sodium bicarbonate and 1% SDS) and incubated overnight at 65 °C. DNA was purified using a PCR Purification Kit (Qiagen) according to the manufacturer's protocol. qPCR was performed using the indicated primers (Table S3). Results were normalized to input.
The test system of data set [11] is STAT3 DNA binding in SKBR3 cells. The data set is described as follows: Chromatin immunoprecipitation, STAT3 binding at target genes. The class given is cell-based, human. The settings on record: 10 μM 1 h, 10 ng/ml LIF 30 min.
Experimental: as §3
The next data set has as its system STAT3-dependent genes. Details: method as in PMID 33373063. The settings on record: chronic lymphocytic leukemia; cited from earlier work.
Data set [12] relates to STAT3 target genes in SKBR3 cells. Kind of data set: STAT3 target gene expression by qRT-PCR in SKBR3 cells. Format: cell-based, human. As to conditions: 10 μM 1 h, OSM 60 min. On the procedure:
Cells were stimulated with 10 ng/ml interleukin 6 (Peprotech) or 10 ng/ml OSM (Peprotech). Cells were stimulated for 15 min for whole cell lysate immunoblotting, 60 to 90 min for qRT–PCR, and 5 to 6 h for luciferase reporter assays.
Total RNA was extracted from cells using the RNeasy Mini Kit (Qiagen). Complementary DNA was generated using the TaqMan Reverse Transcription Reagents (Invitrogen). qPCR was performed in triplicate or quadruplicate using the Power SYBR Green PCR Master Mix (Invitrogen) on a 7500 Real-Time PCR System (Applied Biosystems) or a QuantStudio 6 Flex Real-Time PCR System (Applied Biosystems). Specificity of amplification was confirmed by melting curve analysis. Cycle threshold (CT) values for target genes were normalized to the endogenous reference gene GAPDH. Primer sequences (Table S3) were designed from the University of California Santa Cruz genome browser reference mRNA sequences using Primer3 ([43]).

The target in data set [13] is T1, DHFR. Kind of data set: Cellular thermal shift assay (CETSA) in intact U3A cells. The class given is cell-based. As to conditions: 10 μM, 10 min.
Experimental: as §1, §2
[14] abbreviates: 11 μM DHFR, 130 μM ligand, 200 μM NADPH, […] DMSO, 25 °C.

Chain of CHCHD2 (Q9Y6H1 whole entry): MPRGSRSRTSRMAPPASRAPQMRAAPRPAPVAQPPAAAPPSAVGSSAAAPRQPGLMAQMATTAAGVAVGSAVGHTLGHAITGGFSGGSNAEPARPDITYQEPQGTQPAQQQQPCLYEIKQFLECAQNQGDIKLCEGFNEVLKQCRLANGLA
Chain of proteins of U3A human fibrosarcoma cells (4462 proteins detected) (Homo sapiens, UniProt Q9NYY8) (Q9NYY8 whole entry): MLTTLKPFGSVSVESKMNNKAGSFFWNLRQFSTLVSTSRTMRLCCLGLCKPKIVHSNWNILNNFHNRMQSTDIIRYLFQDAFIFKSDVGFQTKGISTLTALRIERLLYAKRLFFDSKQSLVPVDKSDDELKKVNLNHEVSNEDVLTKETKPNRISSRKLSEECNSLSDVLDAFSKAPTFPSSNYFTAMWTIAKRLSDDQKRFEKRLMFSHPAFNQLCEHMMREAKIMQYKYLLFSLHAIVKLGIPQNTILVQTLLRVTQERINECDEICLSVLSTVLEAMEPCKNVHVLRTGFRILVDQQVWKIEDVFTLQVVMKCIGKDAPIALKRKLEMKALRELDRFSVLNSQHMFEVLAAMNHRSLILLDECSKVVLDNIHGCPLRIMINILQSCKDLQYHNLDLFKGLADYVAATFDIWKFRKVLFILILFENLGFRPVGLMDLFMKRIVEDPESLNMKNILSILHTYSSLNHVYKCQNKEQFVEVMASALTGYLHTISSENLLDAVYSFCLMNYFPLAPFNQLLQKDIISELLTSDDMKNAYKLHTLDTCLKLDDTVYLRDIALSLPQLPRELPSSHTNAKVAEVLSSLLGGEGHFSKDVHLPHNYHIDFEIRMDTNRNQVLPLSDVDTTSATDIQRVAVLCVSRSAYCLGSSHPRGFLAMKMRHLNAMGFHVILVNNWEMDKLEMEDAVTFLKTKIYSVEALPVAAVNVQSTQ
Chain of proteins of U3A human fibrosarcoma cells (4462 proteins detected) (Homo sapiens, UniProt Q8NCA5) (Q8NCA5 whole entry): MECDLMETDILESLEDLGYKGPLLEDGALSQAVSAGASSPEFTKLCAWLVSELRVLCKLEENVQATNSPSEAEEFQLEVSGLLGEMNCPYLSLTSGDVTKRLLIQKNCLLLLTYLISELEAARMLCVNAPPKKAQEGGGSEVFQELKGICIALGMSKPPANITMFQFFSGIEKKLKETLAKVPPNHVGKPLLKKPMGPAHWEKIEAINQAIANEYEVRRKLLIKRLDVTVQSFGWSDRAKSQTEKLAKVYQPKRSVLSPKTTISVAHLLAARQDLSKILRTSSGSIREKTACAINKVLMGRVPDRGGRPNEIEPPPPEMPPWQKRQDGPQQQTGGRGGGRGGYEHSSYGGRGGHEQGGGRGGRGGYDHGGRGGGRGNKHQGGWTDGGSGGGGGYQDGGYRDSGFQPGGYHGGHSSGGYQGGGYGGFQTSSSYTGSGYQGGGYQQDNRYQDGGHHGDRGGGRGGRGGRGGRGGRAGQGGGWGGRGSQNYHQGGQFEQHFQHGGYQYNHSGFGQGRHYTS
Experimental for CHCHD2: as §1
U3A cells were cultured in DMEM (Thermo Fisher Scientific) with 10% heat-inactivated fetal bovine serum and 1% penicillin/streptomycin. […] Cells were washed once with PBS, harvested using trypsin, and centrifuged at 300g. The pellet was resuspended in Tris-buffered saline (TBS) supplemented with cOmplete protease inhibitor cocktail (Roche), aliquoted (50 μl; 8 × 10^5 cells per temperature) into PCR strip tubes, and heated at the indicated temperature in a Veriti Thermal Cycler (Applied Biosystems) for 3 min, then cooled for another 3 min at room temperature. Cells were then lysed by freeze–thawing three times with 3-min incubations in an ethanol/dry ice bath and a water bath at 37 °C. The lysates were then centrifuged at 17,000g for 20 min at 4 °C to remove cellular debris and pelleted protein aggregates. Supernatants (40 μl) were transferred to new tubes and prepared for immunoblotting. […] DHFR stabilization was evaluated with superoxide dismutase 1 as a thermostable loading control. Band intensities were quantified using Fiji ([42]) and then plotted and fitted in GraphPad Prism (GraphPad Software, Inc) to obtain apparent Tagg values.
(A) DHFR protein levels in Fig 2C were quantified and plotted. […] Soluble protein levels were analyzed by immunoblotting with the indicated antibodies. […]

For `CCc1nc(N)nc(N)c1-c1ccc(Cl)cc1` [pyrimethamine], the “OSM-stimulated nuclear pSTAT3 or total STAT3” value in data set [1] was “no effect”. In the data set on U3A cells, the “reduction of cellular ATP levels” value is reported as “about 75%”. In addition, the viability at 6 h, 10 μM in data set [2] was about 100%. On DHFR [3] (setting [14]), this molecule yielded a ΔH of -11.6 ± 0.7 kcal/mol. Besides, on DHFR [3] (setting [14]), the ΔS was −2.8 ± 1 cal/mol/°C. Besides, at DHFR [3] (one-site model), the stoichiometry amounted to 1.0 ± 0.2 sites. Moreover, the “CHCHD2 stabilization by CETSA” value on CHCHD2 is “failed to validate”. Also, the “concentration routinely achieved in the serum of patients” value in [4] is 10 µM. The “difference in potency between pyrimethamine and methotrexate” value at DHFR [5] is about 500 fold. Besides, in the data set on STAT5, the “transcriptional activity of STAT5” value is listed as “no effect”. Moreover, the “DHFR aggregation temperature (Tagg) in the presence of drug” value on DHFR [6] was about 53.2 °C; on DHFR [13] it was 50.6 °C. The “OSM-stimulated BCL6 expression” value in data set [7] and in [12] was “significantly reduced” throughout. The molecule also returned a solubility in “physchem” of over 1000 µM. Moreover, the “Log2 (PYR/DMSO)” value came to 0.24 in [8] and 0.21 in data set [9]. In data set [10], the “pol II recruitment at BCL6” value was “complete loss”. Also, the “LIF-stimulated STAT3 binding at BCL6” value in data set [11] is given as “minimal reduction”. In addition, the “inhibition of expression of STAT3-dependent genes in patients” value in the data set with STAT3-dependent genes is given as “on-target activity”.
